According to PMC7093416, “Selective USP7 inhibition elicits cancer cell killing through a p53-dependent mechanism” (Scientific Reports, 2020):

System: panel of 484 cancer cell lines
Assay: PRISM cancer cell line profiling, 5 days
Assay type: cell-based
Parameters: AUC: unit not given beside the values
Protocol: Cancer cell line profiling was performed using the Broad’s PRISM platform. Cell treatment and data analysis were performed as described in Yu et al[42]. Raw Luminex signal was converted to AUC values for each cell line as described. The resulting AUC profile for each compound was modeled against DepMap using the limma package in R[71]. Because hotspot mutation analysis was performed against DepMap, TP53 annotations in Fig. 6c,d are directly from DepMap.

SMILES: CN1CCN(CCC(=O)Nc2ccc3c(=O)n(CC4(O)CCN(C(=O)[C@@H](CCCNC(=O)c5ccc6c(Cl)c7c(nc6c5)CCCC7)Cc5ccccc5)CC4)cnc3c2)CC1 [XL177A]
- AUC (8MGBA_CENTRAL_NERVOUS_SYSTEM): 1.174
- AUC (22RV1_PROSTATE): 0.9618
- AUC (42MGBA_CENTRAL_NERVOUS_SYSTEM): 1
- AUC (253JBV_URINARY_TRACT): 0.9502
- AUC (253J_URINARY_TRACT): 1.095
- AUC (639V_URINARY_TRACT): 0.832
- AUC (647V_URINARY_TRACT): 1.06
- AUC (769P_KIDNEY): 1.126
- AUC (786O_KIDNEY): 1.266
- AUC (5637_URINARY_TRACT): 1.038
- AUC (8305C_THYROID): 1.048
- AUC (8505C_THYROID): 0.9221
- AUC (2313287_STOMACH): 1.154
- AUC (A101D_SKIN): 1.013
- AUC (A172_CENTRAL_NERVOUS_SYSTEM): 0.8471
- AUC (A204_SOFT_TISSUE): 0.8422
- AUC (A375_SKIN): 1.23
- AUC (A549_LUNG): 0.8217
- AUC (A673_BONE): 1.349
- AUC (A704_KIDNEY): 1.109
- AUC (A2058_SKIN): 0.9507
- AUC (A2780_OVARY): 0.804
- AUC (ABC1_LUNG): 1.07
- AUC (ACCMESO1_PLEURA): 1.035
- AUC (ACHN_KIDNEY): 1.124
- AUC (AGS_STOMACH): 0.9408
- AUC (AN3CA_ENDOMETRIUM): 0.9198
- AUC (ASPC1_PANCREAS): 1.1544
- AUC (BC3C_URINARY_TRACT): 1.1182
- AUC (BCPAP_THYROID): 0.9965
- AUC (BECKER_CENTRAL_NERVOUS_SYSTEM): 0.8518
- AUC (BEN_LUNG): 1.124
- AUC (BFTC905_URINARY_TRACT): 0.8686
- AUC (BFTC909_KIDNEY): 0.9138
- AUC (BHT101_THYROID): 0.9801
- AUC (BICR6_UPPER_AERODIGESTIVE_TRACT): 0.8445
- AUC (BICR16_UPPER_AERODIGESTIVE_TRACT): 0.8236
- AUC (BICR31_UPPER_AERODIGESTIVE_TRACT): 0.8691
- AUC (BICR56_UPPER_AERODIGESTIVE_TRACT): 0.8298
- AUC (BT474_BREAST): 1.426
- AUC (BT549_BREAST): 0.9189
- AUC (BXPC3_PANCREAS): 1.188
- AUC (CADOES1_BONE): 1.097
- AUC (CAKI1_KIDNEY): 1.0035
- AUC (CAL12T_LUNG): 1.065
- AUC (CAL27_UPPER_AERODIGESTIVE_TRACT): 0.8579
- AUC (CAL29_URINARY_TRACT): 0.9717
- AUC (CAL51_BREAST): 0.9698
- AUC (CAL54_KIDNEY): 1.122
- AUC (CAL62_THYROID): 0.9897
- AUC (CAL78_BONE): 0.8669
- AUC (CAL120_BREAST): 0.8877
- AUC (CALU1_LUNG): 1.403
- AUC (CALU6_LUNG): 0.9933
- AUC (CAMA1_BREAST): 0.994
- AUC (CAOV3_OVARY): 1.046
- AUC (CAPAN2_PANCREAS): 1.09
- AUC (CCFSTTG1_CENTRAL_NERVOUS_SYSTEM): 0.9028
- AUC (CFPAC1_PANCREAS): 1.131
- AUC (CHL1_SKIN): 1.028
- AUC (CJM_SKIN): 0.9117
- AUC (CL34_LARGE_INTESTINE): 1.2091
- AUC (COLO668_LUNG): 0.9325
- AUC (COLO679_SKIN): 0.9271
- AUC (COLO680N_OESOPHAGUS): 0.903
- AUC (COLO741_SKIN): 1.181
- AUC (COLO783_SKIN): 0.896
- AUC (COLO792_SKIN): 1.217
- AUC (COLO800_SKIN): 0.9306
- AUC (CORL23_LUNG): 0.9099
- AUC (CORL105_LUNG): 0.9151
- AUC (COV362_OVARY): 0.9501
- AUC (COV434_OVARY): 0.6134
- AUC (DANG_PANCREAS): 1.103
- AUC (DAOY_CENTRAL_NERVOUS_SYSTEM): 0.9019
- AUC (DBTRG05MG_CENTRAL_NERVOUS_SYSTEM): 0.986
- AUC (DETROIT562_UPPER_AERODIGESTIVE_TRACT): 0.8984
- AUC (DKMG_CENTRAL_NERVOUS_SYSTEM): 1.055
- AUC (DMS273_LUNG): 0.9756
- AUC (DU145_PROSTATE): 0.9953
- AUC (DV90_LUNG): 0.6429
- ∆ (AUC, TP53 mutation vs WT; decreased sensitivity) (DepMap TP53 mutation annotation): 0.0512
- AUC (EBC1_LUNG): 0.8513
- AUC (ECGI10_OESOPHAGUS): 1.105
- AUC (EFM192A_BREAST): 1.042
- AUC (EFO21_OVARY): 0.9443
- AUC (EFO27_OVARY): 0.9949
- AUC (EN_ENDOMETRIUM): 1.056
- AUC (ES2_OVARY): 1.069
- AUC (ESS1_ENDOMETRIUM): 0.9952
- AUC (EWS502_BONE): 1.4146
- AUC (FADU_UPPER_AERODIGESTIVE_TRACT): 1.156
- AUC (FTC133_THYROID): 0.8526
- AUC (FTC238_THYROID): 0.8658
- AUC (G292CLONEA141B1_BONE): 1.276
- AUC (G361_SKIN): 1.1047
- AUC (G401_SOFT_TISSUE): 0.6407
- AUC (G402_SOFT_TISSUE): 0.5799
- AUC (GAMG_CENTRAL_NERVOUS_SYSTEM): 1.102
- AUC (GB1_CENTRAL_NERVOUS_SYSTEM): 1.09
- AUC (GCIY_STOMACH): 1.0232
- AUC (GCT_SOFT_TISSUE): 1.012
- AUC (GI1_CENTRAL_NERVOUS_SYSTEM): 1.111
- AUC (GMS10_CENTRAL_NERVOUS_SYSTEM): 1.007
- AUC (GOS3_CENTRAL_NERVOUS_SYSTEM): 0.7415
- AUC (GP2D_LARGE_INTESTINE): 1.073
- AUC (H4_CENTRAL_NERVOUS_SYSTEM): 0.8128
- AUC (HARA_LUNG): 1.29
- AUC (HCC15_LUNG): 0.9559
- AUC (HCC38_BREAST): 1.2075
- AUC (HCC44_LUNG): 0.9515
- AUC (HCC56_LARGE_INTESTINE): 1.407
- AUC (HCC78_LUNG): 1.024
- AUC (HCC95_LUNG): 0.9165
- AUC (HCC366_LUNG): 0.9914
- AUC (HCC827_LUNG): 0.8612
- AUC (HCC1143_BREAST): 1.083
- AUC (HCC1195_LUNG): 0.8483
- AUC (HCC1359_LUNG): 1.123
- AUC (HCC1419_BREAST): 1.047
- AUC (HCC1428_BREAST): 0.8065
